Test results published in PubChem BioAssay AID1259407 (Chemical Carcinogenesis Research Information System (CCRIS), 2018).
The source made the active and inactive calls. No rule for the calls is given here.

System: CCRIS mutagenicity, Ames/micronucleus/aberration tests
Experiment: CCRIS mutagenicity studies
[1] = Test System: AMES SALMONELLA TYPHIMURIUM, Strain/Indicator: TA98, Metabolic Activation: NONE, Method: STANDARD PLATE

`CC(=O)c1cc2c(cc1C)C(C)(C)C(C)CC2(C)C` (configuration not stated) was tested, and the mutagenic call (Test System: AMES SALMONELLA TYPHIMURIUM, Strain/Indicator: TA97, Metabolic Activation: NONE, Method: PREINCUBATION) was “inactive; negative”, the mutagenic call (Test System: AMES SALMONELLA TYPHIMURIUM, Strain/Indicator: TA97, Metabolic Activation: NONE, Method: STANDARD PLATE) was “inactive; negative” and the mutagenic call (Test System: AMES SALMONELLA TYPHIMURIUM, Strain/Indicator: TA97, Metabolic Activation: RAT LIVER S-9, AROCLOR 1254, Method: STANDARD PLATE) was “inactive; negative”. For the same compound, the mutagenic call (Test System: AMES SALMONELLA TYPHIMURIUM, Strain/Indicator: TA97, Metabolic Activation: RAT LIVER S-9, PHENOBARBITAL, BETA-NAPHTHOFLAVONE, Method: PREINCUBATION) was “inactive; negative”, the mutagenic call (Test System: AMES SALMONELLA TYPHIMURIUM, Strain/Indicator: TA97, Metabolic Activation: RAT LIVER S-9, PHENOBARBITAL, BETA-NAPHTHOFLAVONE, Method: STANDARD PLATE) was “inactive; negative” and the mutagenic call (Test System: AMES SALMONELLA TYPHIMURIUM, Strain/Indicator: TA98, Metabolic Activation: NONE, Method: PREINCUBATION) was “inactive; negative”. For the same compound, the mutagenic call [1] was “inactive; negative”, the mutagenic call (Test System: AMES SALMONELLA TYPHIMURIUM, Strain/Indicator: TA98, Metabolic Activation: RAT LIVER S-9, AROCLOR 1254, Method: STANDARD PLATE) was “inactive; negative” and the mutagenic call (Test System: AMES SALMONELLA TYPHIMURIUM, Strain/Indicator: TA98, Metabolic Activation: RAT LIVER S-9, PHENOBARBITAL, BETA-NAPHTHOFLAVONE, Method: PREINCUBATION) was “inactive; negative”. The mutagenic call (Test System: AMES SALMONELLA TYPHIMURIUM, Strain/Indicator: TA98, Metabolic Activation: RAT LIVER S-9, PHENOBARBITAL, BETA-NAPHTHOFLAVONE, Method: STANDARD PLATE) was “inactive; negative”, the mutagenic call (Test System: AMES SALMONELLA TYPHIMURIUM, Strain/Indicator: TA100, Metabolic Activation: NONE, Method: PREINCUBATION) was “inactive; negative” and the mutagenic call (Test System: AMES SALMONELLA TYPHIMURIUM, Strain/Indicator: TA100, Metabolic Activation: NONE, Method: STANDARD PLATE) was “inactive; negative”. The mutagenic call (Test System: AMES SALMONELLA TYPHIMURIUM, Strain/Indicator: TA100, Metabolic Activation: RAT LIVER S-9, AROCLOR 1254, Method: STANDARD PLATE) was “inactive; negative”, the mutagenic call (Test System: AMES SALMONELLA TYPHIMURIUM, Strain/Indicator: TA100, Metabolic Activation: RAT LIVER S-9, PHENOBARBITAL, BETA-NAPHTHOFLAVONE, Method: PREINCUBATION) was “inactive; negative” and the mutagenic call (Test System: AMES SALMONELLA TYPHIMURIUM, Strain/Indicator: TA100, Metabolic Activation: RAT LIVER S-9, PHENOBARBITAL, BETA-NAPHTHOFLAVONE, Method: STANDARD PLATE) was “inactive; negative”. For the same compound, the mutagenic call (Test System: AMES SALMONELLA TYPHIMURIUM, Strain/Indicator: TA102, Metabolic Activation: NONE, Method: PREINCUBATION) was “inactive; negative”, the mutagenic call (Test System: AMES SALMONELLA TYPHIMURIUM, Strain/Indicator: TA102, Metabolic Activation: NONE, Method: STANDARD PLATE) was “inactive; negative” and the mutagenic call (Test System: AMES SALMONELLA TYPHIMURIUM, Strain/Indicator: TA102, Metabolic Activation: RAT LIVER S-9, AROCLOR 1254, Method: STANDARD PLATE) was “inactive; negative”. The mutagenic call (Test System: AMES SALMONELLA TYPHIMURIUM, Strain/Indicator: TA102, Metabolic Activation: RAT LIVER S-9, PHENOBARBITAL, BETA-NAPHTHOFLAVONE, Method: PREINCUBATION) was “inactive; negative”, the mutagenic call (Test System: AMES SALMONELLA TYPHIMURIUM, Strain/Indicator: TA102, Metabolic Activation: RAT LIVER S-9, PHENOBARBITAL, BETA-NAPHTHOFLAVONE, Method: STANDARD PLATE) was “inactive; negative” and the mutagenic call (Test System: AMES SALMONELLA TYPHIMURIUM, Strain/Indicator: TA1535, Metabolic Activation: NONE, Method: PREINCUBATION) was “inactive; negative”. The mutagenic call (Test System: AMES SALMONELLA TYPHIMURIUM, Strain/Indicator: TA1535, Metabolic Activation: NONE, Method: STANDARD PLATE) was “inactive; negative”, the mutagenic call (Test System: AMES SALMONELLA TYPHIMURIUM, Strain/Indicator: TA1535, Metabolic Activation: RAT LIVER S-9, PHENOBARBITAL, BETA-NAPHTHOFLAVONE, Method: PREINCUBATION) was “inactive; negative” and the mutagenic call (Test System: AMES SALMONELLA TYPHIMURIUM, Strain/Indicator: TA1535, Metabolic Activation: RAT LIVER S-9, PHENOBARBITAL, BETA-NAPHTHOFLAVONE, Method: STANDARD PLATE) was “inactive; negative”. For the same compound, the mutagenic call (Test System: AMES SALMONELLA TYPHIMURIUM, Strain/Indicator: TA1537, Metabolic Activation: NONE, Method: PREINCUBATION) was “inactive; negative”, the mutagenic call (Test System: AMES SALMONELLA TYPHIMURIUM, Strain/Indicator: TA1537, Metabolic Activation: NONE, Method: STANDARD PLATE) was “inactive; negative” and the mutagenic call (Test System: AMES SALMONELLA TYPHIMURIUM, Strain/Indicator: TA1537, Metabolic Activation: RAT LIVER S-9, PHENOBARBITAL, BETA-NAPHTHOFLAVONE, Method: PREINCUBATION) was “inactive; negative”. The mutagenic call (Test System: AMES SALMONELLA TYPHIMURIUM, Strain/Indicator: TA1537, Metabolic Activation: RAT LIVER S-9, PHENOBARBITAL, BETA-NAPHTHOFLAVONE, Method: STANDARD PLATE) was “inactive; negative”, the mutagenic call (Test System: ESCHERICHIA COLI, Strain/Indicator: WP2 UVR A, Metabolic Activation: NONE, Method: PREINCUBATION) was “inactive; negative” and the mutagenic call (Test System: ESCHERICHIA COLI, Strain/Indicator: WP2 UVR A, Metabolic Activation: NONE, Method: STANDARD PLATE) was “inactive; negative”. For the same compound, the mutagenic call (Test System: ESCHERICHIA COLI, Strain/Indicator: WP2 UVR A, Metabolic Activation: RAT LIVER S-9, PHENOBARBITAL, BETA-NAPHTHOFLAVONE, Method: PREINCUBATION) was “inactive; negative”, the mutagenic call (Test System: ESCHERICHIA COLI, Strain/Indicator: WP2 UVR A, Metabolic Activation: RAT LIVER S-9, PHENOBARBITAL, BETA-NAPHTHOFLAVONE, Method: STANDARD PLATE) was “inactive; negative” and the mutagenic call (Test System: UDS RAT HEPATOCYTES, Metabolic Activation: NONE, Method: NET NUCLEAR GRAIN COUNT) was “inactive; negative”.
In the case of `CCC1=C(C(=O)OC)C(=O)OC1C` (configuration not stated), the mutagenic call (Test System: AMES SALMONELLA TYPHIMURIUM, Strain/Indicator: TA98, Metabolic Activation: NONE, Method: DISK ASSAY) is reported as “inactive; negative”, the mutagenic call [1] is reported as “active; positive” and the mutagenic call (Test System: AMES SALMONELLA TYPHIMURIUM, Strain/Indicator: TA98, Metabolic Activation: RAT, LIVER, S-9, AROCLOR 1254, Method: DISK ASSAY) is reported as “inactive; negative”. For the same compound, the mutagenic call (Test System: AMES SALMONELLA TYPHIMURIUM, Strain/Indicator: TA98, Metabolic Activation: RAT, LIVER, S-9, AROCLOR 1254, Method: STANDARD PLATE) was “active; positive”.
